Test results: US11952348B1, “4,5-bis(4-bromophenyl)-1-hexyl-2-(4-hydroxy-3-dimethoxyphenyl)-1H-imidazole as an antimicrobial compound” (KING FAISAL UNIVERSITY, priority 2023, dated 2024)

Assays:
Format in all cases: cell-based
Conditions in all cases: after 10, 20, 40 and 60 minutes at all dilutions 1:100, 1:200, 1:400, 1:800
Pseudomonas aeruginosa = experiment: Antimicrobial screening by agar dilution, Pseudomonas aeruginosa
Procedure: (§1) The antimicrobial properties of the 4,5-bis(4-bromophenyl)-1-hexyl-2-(4-hydroxy-3-dimethoxyphenyl)-1H-imidazole was studied by the method of agar dilution. Test solutions of each compound was prepared in concentration of 1% using dimethylformamide as a solvent then they were diluted in physiological solution to obtain the final experimental dilutions 1: 100, 1:200, 1:400, 1:800. The effect of these substances were compared with furacillin in a controlled study. The testing microbes used were gram positive bacteria Staphylococcus aureus, gram negative bacteria Pseudomonas aeruginosa and Escherichia coli and Candida albicans fungi were taken. The experiments used for this survey were meat-pentonlu agar (EPA) for cultivation of bacteria and Saburo environment for fungi. Each experiment used 1 ml of test solution on each plate 500 min. Add 2 drops of emulsified with microbes feel. All experimental samples were taken from the agar after 10, 20, 40, 60 minutes in the environment on the basis of Patrk planted. Bacteria were cultivated at a temperature of 37° C. for 1 day and the mushroom was kept in a thermostat for […] at a temperature of 28° C. Then results were checked.

Staphylococcus aureus = experiment: Antimicrobial screening by agar dilution, Staphylococcus aureus
Procedure: as §1

Candida albicans = experiment: Antimicrobial (antifungal) screening by agar dilution, Candida albicans
Procedure: as §1

Escherichia coli = experiment: Antimicrobial screening by agar dilution, Escherichia coli
Procedure: as §1

Measured: inhibition activity (summary in words)

CCCCCCn1c(-c2ccc(O)c(OC)c2)nc(-c2ccc(Br)cc2)c1-c1ccc(Br)cc1 [4,5-bis(4-bromophenyl)-1-hexyl-2-(4-hydroxy-3-dimethoxyphenyl)-1H-imidazole]
highest inhibition activity: all assays above
